# Data as given in patent US11390646B2, “Structure-based peptide inhibitors of α-synuclein aggregation” (The Regents of the University of California, priority 2016, dated 2022).
# “And” between values parts separate entries of the source, which are not always exact repeats. Identical values can stand only once. “Also recorded” adds a separate entry of the source. Ends that are not written are not given here.
# Assays:
# [1] = tested on: WT YFP-α-syn HEK cells; assay: PD filament seeded α-syn fibrils transfected along with inhibitors; format: cell-based, human; details: two different PD filaments; for seeding by PD filament seeded α-syn fibrils (puncta formation): fluorescence measured up to 6 days
# Experimental: We tested the efficacy of the inhibitors in preventing seeding by PD fibrils in cell culture. α-syn aggregates formed in the presence of PD fibrils were transfected in WT HEK cells along with the different inhibitors (FIG. 7A).
# (§1) Human frozen brain tissues were obtained from UCLA Brain Tumor Translational Resource (BTTR). Sarkosyl insoluble protein was extracted using previously described protocols. Briefly, frozen tissue was homogenized in ice cold PBS using a dounce homogenizer at 200 mg/mL. The homogenate was then diluted in buffer A (10 mM Tris 7.4, 800 mM NaCl, 1 mM EGTA, 10% Sucrose) to 50 mg/mL in total volume of 1 mL and centrifuged at 20,700 g for 20 min at 4° C. The supernatant was collected in an ultracentrifuge tube and pellet was resuspended in 0.5 mL buffer A followed by centrifugation at 20,700 g for 20 mins at 4° C. The supernatants pooled together. 150 μl 10% sarkosyl (w/v) in Millipore water was then added and incubated for 1 h at room temperature on flat rotating shaker at 700 rpm. The solution was then centrifuged at 100,000 g for 1 h at 4° C. using SW 55 Rotor (Beckman Coulter). The supernatanat was discarded and pellet was washed with 5 mL Buffer A and centrifuged at 100,000 g for 20 mins at 4° C. The pellet was resuspended in 100 μl 50 mM Tris Ph 7.4
# 10,000 cells in 90 μL media were plated in 96 well black wall plate (Cat #3660) and allowed to adhere overnight. α-syn was transfected at a final monomer concentration of 125 nM. Lipofectamine 2000 was diluted in OptiMEM media (2.5+17.5 μL) and incubated at room temperature for 5 mins. […]
# Puncta formation and cell growth was measured using Celigo Imaging Cell Cytometer allowing for unbiased measurement. Wells were imaged using fluorescent GFP channel and confluence was measured using Celigo analysis software. Images of entire well were taken and particles counted by ImageJ by particle analysis. […] Total particles counted in each well were normalized against the confluence and reported as particles per well.
# [2] = biological target: T1, α-syn seeded by PD tissue-extracted filaments (Homo sapiens, UniProt P37840); assay: ThT assay of α-syn aggregation seeded by PD brain tissue-extracted filaments; format: biochemical; details: filaments from 4 different subjects (seeds A-D)
# T1 construct: Full length α-syn was purified according to published protocols; made in house; host or cells: E. coli BL21 (DE3) gold
# Text: We extracted insoluble protein aggregates from frozen autopsy PD brain tissues. We obtained tissues from 4 different subjects including the substantia nigra and frontal regions of one subject and temporal and frontal regions of other subjects. Using previously described protocols (Goedert et al. (1992) Neuron 8(1):159-168) that included precipitation with the ionic detergent sarkosyl, we extracted insoluble protein aggregates (FIG. 4A). All samples robustly seeded α-syn aggregation in vitro and in our cell culture model. In vitro addition of 2% seeds increased the ThT fluorescence 4 to 10 fold (FIG. 4B, 4C, 4D) along with a small decrease in the lag time. The seeded samples were then transfected in HEK cells. Consistent with the ThT assay, all seeded samples induced rapid puncta formation (FIG. 4E, 4F, 4G). Thus, fibrils extracted from PD brain tissues seeds recombinant protein, and the aggregates formed upon seeding induce rapid puncta formation in cell culture.
# (§2) We tested the effect of the different inhibitors in preventing α-syn aggregation in the presence of PD extracted seeds. […] Next we tested the seeding potency of the α-syn aggregates formed in the presence of PD seeds and the different inhibitors (FIG. 6A).
# Fibril formation assays were performed with 50 μM protein concentration in conditions identical to those used for aggregating proteins for seeding assay, but with the addition of ThT. All assays were carried out in black Nunc 96-well optical bottom plates (Thermo Scientific). Plates were agitated at 600 rpm in 3-mm rotation diameter in a Varioskan microplate reader (Thermo) at 37° C. Fluorescence measurements were recorded every 30 mins using λex=444 nm, λcm=482 nm, with an integration time of 200 μs.
# Human frozen brain tissues were obtained from UCLA Brain Tumor Translational Resource (BTTR). Sarkosyl insoluble protein was extracted using previously described protocols. Briefly, frozen tissue was homogenized in ice cold PBS using a dounce homogenizer at 200 mg/mL. […]
# [3] = tested on: HEK293T cells expressing YFP-labeled WT α-syn; assay: Cell culture seeding assay: α-syn aggregated in the presence of inhibitors, mixture transfected, puncta counted; format: cell-based, human; details: for seeding competence of α-syn aggregated in presence of peptide (particles/puncta per well): 50 μM α-syn aggregated with 10, 5, 2, 1 fold excess (S71: equimolar and sub-stoichiometric), monitored up to 3 days
# Text: (§3) We tested the efficacy of the inhibitors in preventing aggregation in a cell culture model. For these assays, we utilized two HEK293T cells that stably express YFP-labeled full-length WT α-syn and A53T α-syn (Sanders D W, et al. (2014) Neuron 82(6):1271-1288). In this model, lipofectamine-mediated transfection of recombinant fibrils leads to aggregation of the endogenous YFP-labeled protein that are seen as fluorescent puncta. Additionally, these puncta increase in size and number over time. This proliferation of aggregates over time is indicative of a ‘seeding’ phenomenon whereby a small amount of amyloid fibrils induces aggregation of the endogenous protein. First we tested the parent peptide segment, NACore to check its effect on seeding. α-syn was aggregated in the presence of molar excess of NACore (FIG. 2B). The mixture was transfected in cells and puncta formation was visualized and the number of puncta were counted as particles per well. […] Next we aggregated 50 μM α-syn in the presence of 500 μM, 250 μM, 100 μM and 50 μM inhibitor corresponding to 10, 5, 2 and 1 fold excess. The mixture was then transfected in cells and aggregation was monitored over time for up to 3 days by fluorescence imaging (FIG. 2A).
# (§4) HEK293T cells that stably express YFP labeled WT α-syn and A53T α-syn were a generous gift from Dr. Marc Diamond. Cells were grown in Dulbecco's modified Eagle's medium (Gibco) supplemented with 10% fetal bovine serum (HyClone), 1% penicillin/streptomycin (Gibco), and 1% glutamax (Gibco) in a humidified incubator in 37° C., 5% CO2.
# (§5) 10,000 cells in 90 μL media were plated in 96 well black wall plate (Cat #3660) and allowed to adhere overnight. α-syn was transfected at a final monomer concentration of 125 nM. Lipofectamine 2000 was diluted in OptiMEM media (2.5+17.5 μL) and incubated at room temperature for 5 mins. Protein aggregates were diluted in OptiMEM media (1:20) and sonicated in a water bath sonicator for 3 mins at low pulse. Diluted lipofectamine and protein samples were then mixed 1:1 and incubated at room temperature for 20 mins and thereafter 10 μL was added to each well. All samples are added in triplicates and experiments were repeated a minimum of two times. For co-transfection of α-syn fibrils with inhibitors, the fibrils and inhibitors were diluted in OptiMEM and incubated for 3 hours followed by sonication.
# (§6) Puncta formation and cell growth was measured using Celigo Imaging Cell Cytometer allowing for unbiased measurement. Wells were imaged using fluorescent GFP channel and confluence was measured using Celigo analysis software. Images of entire well were taken and particles counted by ImageJ by particle analysis. Same settings were used to analyze wells of one plate at all days. Total particles counted in each well were normalized against the confluence and reported as particles per well.
# [4] = tested on: HEK293T cells expressing YFP-labeled A53T α-syn; assay: as above; format: cell-based, human; details: for seeding competence of α-syn aggregated in presence of peptide (particles/puncta per well): 50 μM α-syn aggregated with 10, 5, 2, 1 fold excess (S71: equimolar and sub-stoichiometric), monitored up to 3 days
# Text: as §3, §4, §5, §6
# [5] = tested on: WT α-syn expressing HEK cells; assay: Seeding potency in cells of α-syn aggregates formed in the presence of PD seeds and inhibitors; format: cell-based, human; details: three different PD brain extracted seeds
# Text: as §2, §1, §5, §6
# [6] = tested on: A53T α-syn expressing HEK cells; assay: as above; format: cell-based, human; details: three different PD brain extracted seeds
# Text: as §2, §1, §5, §6
# [7] = tested on: HEK293T cells expressing YFP-labeled WT α-syn; assay: Cell culture seeding assay: recombinant α-syn fibrils co-transfected with inhibitors; format: cell-based, human; details: for seeding capacity of α-syn fibrils co-transfected with peptide (particles per well normalized to buffer): 125 nM recombinant α-syn fibrils; for concentrations at which seeding was reduced: 125 nM α-syn fibrils co-transfected
# Experimental: (§7) We tested the efficacy of the inhibitors to prevent seeding in the cell culture model (FIG. 3A). We transfected the α-syn fibrils along with the different inhibitors. […] S62 was effective at concentrations of 12.5 μM and 6.25 μM in both cell lines (FIG. 3E). S71 was effective at low concentrations of 1.25 μM.
# as §4, §5, §6
# [8] = tested on: HEK293T cells expressing YFP-labeled A53T α-syn; assay: as above; format: cell-based, human; details: for seeding capacity of α-syn fibrils co-transfected with peptide (particles per well normalized to buffer): 125 nM recombinant α-syn fibrils; for concentrations at which seeding was reduced: 125 nM α-syn fibrils co-transfected
# Experimental: as §7, §4, §5, §6
# [9] = tested on: PC12 cells; details: literature reference 20; cited from earlier work
# [10] = α-syn aggregated in presence of inhibitor
Substance,seeding by PD filament seeded α-syn fibrils (puncta formation) [1],inhibition of α-syn aggregation seeded by PD extracted seeds (ThT fluorescence) [2],seeding competence of α-syn aggregated in presence of peptide (particles/puncta per well) [3],"duration of reduction in seeding [3, 10]",seeding competence of α-syn aggregated in presence of peptide (particles/puncta per well) [4],"duration of reduction in seeding [4, 10]",seeding potency of α-syn aggregates formed in presence of PD seeds and inhibitor (puncta formation) [5],seeding potency of α-syn aggregates formed in presence of PD seeds and inhibitor (puncta formation) [6],seeding capacity of α-syn fibrils co-transfected with peptide (particles per well normalized to buffer) [7],concentrations at which seeding was reduced [7],"duration of reduction of seeding ([7]; single administration, co-transfection)",seeding capacity of α-syn fibrils co-transfected with peptide (particles per well normalized to buffer) [8],concentrations at which seeding was reduced [8],concentrations at which seeding by PD filament seeded fibrils was prevented/reduced [1] [µM],toxicity compared with NACore [9]
"GAVVWGVTAVKKKKK (C-terminal poly-lysine tag) [Inhibitor S37, W mutation at Thr72 and poly-lysine tag at the C-terminus]",prevented seeding; also recorded: prevented puncta formation,marginal reduction in ThT fluorescence,not seeding competent; also recorded: significant reduction in seeding,up to 2 days,not seeding competent; also recorded: significant reduction in seeding,up to 2 days,not effective in reducing the seeding potency of aggregates,not effective in reducing the seeding potency of aggregates,reduce seeding capacity; also recorded: significant reduction in seeding,12.5 µM and 6.25 µM,up to 2 days,reduce seeding capacity; also recorded: significant reduction in seeding,12.5 µM and 6.25 µM,,
GAVVWGVTAVKKGRKKRRQRRRPQ (TAT tag) [Inhibitor S62],,effective against all seeds that were tested; also recorded: efficacy against all seeds,not seeding competent; also recorded: seeding incompetent,,not seeding competent; also recorded: seeding incompetent,,,,reduce seeding capacity; also recorded: effective,12.5 µM and 6.25 µM,,reduce seeding capacity; also recorded: effective,12.5 µM and 6.25 µM,,
YGRKKRRQRRRAVVT{N-me-Gly}VTAVAE [Inhibitor S71],reduced seeding; also recorded: prevented seeding,effective against seeds B and D; also recorded: efficacy against all seeds,not seeding competent; also recorded: reduce the seeding potency of the aggregates,,not seeding competent; also recorded: reduce the seeding potency of the aggregates,,effective against all three seeds; also recorded: did not induce puncta formation,effective against all three seeds; also recorded: did not induce puncta formation,reduce seeding capacity; also recorded: effective,1.25 µM,,reduce seeding capacity; also recorded: effective,1.25 µM,6.25,
"AVVTGVTAV [SubNACore, AVVTGVTAV]",,,,,,,,,,,,,,,not as toxic
